For 23 compounds, IC50 results are on record in ChEMBL document CHEMBL4828751, “Discovery of novel tubulin/HDAC dual-targeting inhibitors with strong antitumor and antiangiogenic potency” (Eur J Med Chem, 2021).

Assay type in all cases: functional, cell-based
The subject of one assay is A549. The assay can be described thus: Antiproliferative activity against human A549 cells assessed as cell growth inhibition after 72 hrs by SRB assay. Particulars: A549, 72 h.
A further assay has as its system MGC-803. The experiment in a line: Antiproliferative activity against human MGC-803 cells assessed as cell growth inhibition after 72 hrs by SRB assay. Particulars: MGC-803, 72 h.
The subject of another assay is U-937. The experiment in a line: Antiproliferative activity against human U-937 cells assessed as cell growth inhibition after 72 hrs by CCK8 assay. Particulars: U-937, 72 h. (Formazan colour is commonly taken as a measure of viable cells.)
The test system of the next assay is MCF7. The experiment in a line: Antiproliferative activity against human MCF7 cells assessed as cell growth inhibition after 72 hrs by SRB assay. Particulars: MCF7, 72 h.
Another assay concerns HeLa. The experiment in a line: Antiproliferative activity against human HeLa cells assessed as cell growth inhibition after 72 hrs by SRB assay.
The next assay relates to HepG2. The assay can be described thus: Antiproliferative activity against human HepG2 cells assessed as cell growth inhibition after 72 hrs by SRB assay. The settings on record: HepG2, 72 h. On the technique in general: In SRB staining, fixed cells bind dye roughly in proportion to their protein.

For orientation: IC50 means the concentration at which inhibition is half-maximal.

Structures are written as SMILES.

With `COc1ccc(C(=O)c2cc(OC)c(OC)c(OC)c2)cc1OCCCC(=O)Nc1ccccc1N`, the half-maximal inhibitory concentration (IC50) with A549 was more than 5 µM; in the assay on MGC-803, more than 5000 nM; with U-937, more than 5 µM; in the assay on MCF7, more than 5000 nM; in the assay with HeLa, more than 5000 nM; with HepG2 it was more than 5 µM.

As to `COc1ccc(C(=O)c2cc(OC)c(OC)c(OC)c2)cc1Oc1ccc(C(=O)NO)cn1`, the IC50 in the assay on A549 is more than 5 µM; in the assay with MGC-803, more than 5000 nM; in the assay on U-937, more than 5 µM; in the assay on MCF7, more than 5000 nM; in the assay on HeLa it was more than 5000 nM; in the assay with HepG2, more than 5 µM.

Turning to `COc1ccc(/C=C\c2cc(OC)c(OC)c(OC)c2)cc1OCCCCC(=O)Nc1ccccc1N`, the half-inhibitory concentration (IC50) in the assay on A549 is more than 5 µM; in the assay with MGC-803 it was more than 5000 nM; in the assay on U-937, more than 5 µM; with MCF7 it was more than 5000 nM; in the assay on HeLa, more than 5000 nM; with HepG2 it was more than 5 µM.

`COc1ccc(/C=C\c2cc(OC)c(OC)c(OC)c2)cc1Oc1ccc(C(=O)Nc2ccccc2N)cn1`: the IC50 in the assay with A549 is more than 5 µM; in the assay with MGC-803 it was 1290 nM; in the assay on U-937, 3.22 µM; in the assay on MCF7, 2610 nM; in the assay with HeLa, more than 5000 nM; in the assay with HepG2 it was 4.92 µM.

Turning to `COc1ccc(/C=C\c2cc(OC)c(OC)c(OC)c2)cc1OCCCCC(=O)NO`, the IC50 stood at 4.81 µM in the assay on A549; 1130 nM with MGC-803; 3.32 µM in the assay on U-937; 2810 nM in the assay with MCF7; 189 nM in the assay on HeLa; 3.56 µM with HepG2.

`COc1ccc(C(=O)c2cc(OC)c(OC)c(OC)c2)cc1Oc1ccc(C(=O)Nc2ccccc2N)cc1`: the IC50 with A549 was more than 5 µM; in the assay with MGC-803, more than 5000 nM; in the assay with U-937 it was more than 5 µM; in the assay on MCF7, more than 5000 nM; in the assay on HeLa, more than 5000 nM; with HepG2, more than 5 µM.

For `COc1ccc(/C=C\c2cc(OC)c(OC)c(OC)c2)cc1/C=C/C(=O)NO`, the IC50 stood at 0.254 µM with A549; 208 nM in the assay on MGC-803; 0.805 µM with U-937; 158 nM in the assay on MCF7; 257 nM in the assay with HeLa; 0.252 µM in the assay with HepG2.

As for `COc1ccc(/C=C\c2cc(OC)c(OC)c(OC)c2)cc1OCC(=O)NO`, the IC50 with A549 is 0.285 µM; in the assay with MGC-803 it was 13 nM; with U-937 it was more than 5 µM; with MCF7 it was 419 nM; in the assay with HeLa, 64 nM; with HepG2, 0.122 µM.

For the compound `COc1ccc(/C=C\c2cc(OC)c(OC)c(OC)c2)cc1OCc1ccc(C(=O)Nc2ccccc2N)cc1`, the IC50 stood at 2.21 µM in the assay with A549; 604 nM in the assay with MGC-803; 1.79 µM in the assay with U-937; 1470 nM in the assay with MCF7; 2210 nM with HeLa; 3.41 µM in the assay with HepG2.

Regarding `COc1ccc(C(=O)c2cc(OC)c(OC)c(OC)c2)cc1OCCCCC(=O)NO`, the IC50 in the assay with A549 was more than 5 µM; in the assay on MGC-803, more than 5000 nM; with U-937, more than 5 µM; with MCF7 it was more than 5000 nM; in the assay on HeLa, more than 5000 nM; in the assay on HepG2, more than 5 µM.

Regarding `COc1ccc(/C=C\c2cc(OC)c(OC)c(OC)c2)cc1Oc1ccc(C(=O)Nc2ccccc2N)cc1`, the IC50 in the assay with A549 is more than 5 µM; in the assay with MGC-803, 1360 nM; with U-937 it was 4.33 µM; with MCF7, 1570 nM; with HeLa it was more than 5000 nM; in the assay on HepG2, 4.7 µM.

Regarding `COc1ccc(/C=C\c2cc(OC)c(OC)c(OC)c2)c(/C=C/C(=O)Nc2ccccc2N)c1`, the IC50 in the assay with A549 stood at 4.69 µM; in the assay on MGC-803, 301 nM; in the assay on U-937 it was 3.75 µM; in the assay on MCF7, 2120 nM; in the assay on HeLa, 1960 nM; in the assay on HepG2 it was 2.76 µM.

With `COc1ccc(C(=O)c2cc(OC)c(OC)c(OC)c2)cc1OCC(=O)Nc1ccccc1N`, the IC50 in the assay with A549 is more than 5 µM; in the assay with MGC-803, more than 5000 nM; in the assay with U-937, 0.758 µM; in the assay with MCF7, more than 5000 nM; in the assay with HeLa, more than 5000 nM; in the assay with HepG2 it was more than 5 µM.

Take `COc1ccc(C(=O)c2cc(OC)c(OC)c(OC)c2)c(/C=C/C(=O)Nc2ccccc2N)c1`: the IC50 in the assay on A549 amounted to 3.21 µM; in the assay with MGC-803, 1610 nM; with U-937, 1.68 µM; with MCF7, 1180 nM; with HeLa, 1040 nM; with HepG2 it was 1.56 µM.

With `COc1ccc(/C=C\c2cc(OC)c(OC)c(OC)c2)c(/C=C/C(=O)NO)c1`, the IC50 was determined as 2.23 µM in the assay with A549; 146 nM in the assay with MGC-803; 0.995 µM in the assay with U-937; 641 nM with MCF7; 61 nM in the assay on HeLa; 0.164 µM in the assay on HepG2.

`COc1ccc(C(=O)c2cc(OC)c(OC)c(OC)c2)cc1/C=C/C(=O)Nc1ccccc1N`: the IC50 in the assay with A549 worked out at 3.21 µM; in the assay on MGC-803 it was 1100 nM; in the assay on U-937 it was 2.25 µM; with MCF7, 828 nM; in the assay on HeLa, 1180 nM; in the assay on HepG2 it was 1.17 µM.

Regarding `COc1ccc(/C=C\c2cc(OC)c(OC)c(OC)c2)cc1OCCCC(=O)Nc1ccccc1N`, the IC50 with A549 was 3.24 µM; with MGC-803, more than 5000 nM; in the assay on U-937 it was 5.78 µM; with MCF7, 4280 nM; in the assay with HeLa, 740 nM; in the assay with HepG2, more than 5 µM.

`COc1ccc(/C=C\c2cc(OC)c(OC)c(OC)c2)cc1Oc1ccc(C(=O)NO)cn1`: the IC50 with A549 was 2.44 µM; in the assay on MGC-803, 1090 nM; in the assay on U-937, 3.32 µM; in the assay on MCF7, 485 nM; with HeLa, 2440 nM; with HepG2, more than 5 µM.

As for `COc1ccc(/C=C\c2cc(OC)c(OC)c(OC)c2)cc1Oc1ccc(C(=O)NO)cc1`, the IC50 in the assay with A549 amounted to 1.47 µM; with MGC-803, 927 nM; with U-937 it was 3.5 µM; with MCF7, 1470 nM; in the assay with HeLa it was 1470 nM; in the assay on HepG2 it was 4.55 µM.

Turning to `COc1ccc(/C=C\c2cc(OC)c(OC)c(OC)c2)cc1OCC(=O)Nc1ccccc1N`, the IC50 was more than 5 µM with A549; more than 5000 nM in the assay with MGC-803; more than 5 µM in the assay on U-937; more than 5000 nM in the assay with MCF7; more than 5000 nM in the assay on HeLa; more than 5 µM in the assay on HepG2.

With `COc1ccc(C(=O)c2cc(OC)c(OC)c(OC)c2)cc1OCc1ccc(C(=O)NO)cc1`, the IC50 was more than 5 µM with A549; more than 5000 nM with MGC-803; more than 5 µM in the assay on U-937; more than 5000 nM in the assay with MCF7; more than 5000 nM in the assay with HeLa; more than 5 µM in the assay on HepG2.

For `COc1ccc(C(=O)c2cc(OC)c(OC)c(OC)c2)cc1OCCCCC(=O)Nc1ccccc1N`, the IC50 in the assay with A549 is more than 5 µM; with MGC-803, more than 5000 nM; in the assay on U-937, more than 5 µM; in the assay with MCF7 it was more than 5000 nM; in the assay with HeLa, more than 5000 nM; with HepG2 it was more than 5 µM.

Take `COc1ccc(/C=C\c2cc(OC)c(OC)c(OC)c2)cc1Oc1ccc(C(C)(C)C(=O)Nc2ccccc2N)cc1`: the IC50 was more than 5 µM in the assay on A549; more than 5000 nM with MGC-803; more than 5 µM with U-937; more than 5000 nM with MCF7; more than 5000 nM in the assay on HeLa; more than 5 µM in the assay on HepG2.
